This passage reports IC50 and Activity results from ChEMBL document CHEMBL5154801, “Virtual screening and crystallographic studies reveal an unexpected γ-lactone derivative active against MptpB as a potential antitubercular agent” (Eur J Med Chem, 2022).

Each structure is given as a SMILES string.

The target of data set [1] is T1, Phosphotyrosine-protein phosphatase PTPB (Mycobacterium tuberculosis, UniProt P96830).
T1 sequence (P96830 whole entry): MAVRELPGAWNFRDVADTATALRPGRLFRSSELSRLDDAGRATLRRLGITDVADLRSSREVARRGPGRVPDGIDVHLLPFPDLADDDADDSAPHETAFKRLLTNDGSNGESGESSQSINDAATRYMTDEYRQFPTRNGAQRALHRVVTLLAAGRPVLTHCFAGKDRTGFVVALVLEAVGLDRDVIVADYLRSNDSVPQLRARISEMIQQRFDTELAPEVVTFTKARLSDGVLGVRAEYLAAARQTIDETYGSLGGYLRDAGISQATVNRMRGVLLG
The data set is described as follows: Inhibition of Mycobacterium tuberculosis PTPB expressed in Escherichia coli BL21 (DE3) assessed as residual activity.

For data set [2], the target named is T2, Phosphotyrosine-protein phosphatase PTPB (Mycobacterium tuberculosis) (UniProt P96830).
T2 sequence (whole entry): T1 sequence (P96830 whole entry)
In words: Inhibition of Mycobacterium tuberculosis PTPB expressed in Escherichia coli BL21 (DE3) assessed as residual activity at 100 uM using p-nitrophenyl phosphate as substrate relative to control.

The target of data set [3] is T1, Phosphotyrosine-protein phosphatase PTPB. The data set is described as follows: Inhibition of Mycobacterium tuberculosis PTPB expressed in Escherichia coli BL21 (DE3) in presence of DTT by PAINS assay.
Data set [4] shares this target. The data set is described as follows: Inhibition of Mycobacterium tuberculosis PTPB expressed in Escherichia coli BL21 (DE3) in presence of BSA by PAINS assay.
Data set [5] is described as follows: Cytotoxicity against human MRC5 cells assessed as reduction in cell viability at 200 to 0.02 uM measured after 96 hrs. In kind it is toxicity, cell-based.
A short description of data set [6]: Cytotoxicity against human WI-38 cells assessed as reduction in cell viability at 200 to 0.02 uM measured after 96 hrs. In kind it is toxicity, cell-based.

Consider `O=C1OC(c2ccccc2C(F)(F)F)C(c2ccc3ccccc3n2)=C1O` (stereo in doubt; 1-E2) [listing 1 of 2 here], for which, in data set [1], the IC50 (commonly the concentration that inhibits the measured activity by half) was 72.2 µM.
Turning to `O=C(O)c1cc(-c2cc(Cl)ccc2Cl)[nH]n1`, in data set [2], the Activity is 109%.
For `CC1(C)Cc2c(sc(NC(=O)C(=O)O)c2C(=O)O)CO1`, the Activity in data set [2] was found to be 104%.
Turning to `O=C(O)C(=O)/C(=C/c1ccccc1C(F)(F)F)c1ccc2ccccc2n1`, the Activity in data set [2] amounted to 24.3%. For the same molecule, the IC50 amounted to 48.1 µM in data set [1], 47 µM in data set [3] and 51.6 µM in data set [4]. Also, the IC50 at 96 h in data set [5] and in data set [6] was > 200 µM in each case.
Regarding `Cc1nc(-c2cccnc2-n2cnc(C(=O)O)c2)no1`, the Activity in data set [2] came out at 83.2%.
For `O=C1OC(c2ccccc2C(F)(F)F)C(c2ccc3ccccc3n2)=C1O` (stereo in doubt; 1-E2) [listing 2 of 2 here], the Activity in data set [2] came to 27.7%.
Regarding `COc1cccc(C2CC(O)=Nc3c(C(=O)O)cn(-c4cccc(F)c4)c32)c1OC` (stereo not drawn), in data set [2], the Activity was 101%.
For `CCOC(=O)c1c(NC(=O)C(=O)O)sc2c1CCCC2`, the Activity in data set [2] was determined as 69.5%.
The same measure, in the same setting: to `O=C1OC(c2ccccc2C(F)(F)F)C(c2ccc3ccccc3n2)=C1O` (stereo in doubt; 1-E1) [listing 1 of 2 here] belongs 14.2%; to `CC(C)c1nnc(NC(=O)C(=O)O)s1`, 87.2%.
As for `Cc1onc(C(=O)O)c1-c1cccc(-c2cc(Cl)c(O)c(Cl)c2)c1`, the Activity in data set [2] worked out at 10.9%. Moreover, the IC50 in data set [1] was found to be 25.8 µM.
For `O=C1OC(c2ccccc2C(F)(F)F)C(c2ccc3ccccc3n2)=C1O` (stereo in doubt; 1-E1) [listing 2 of 2 here], the IC50 in data set [1] is 31.1 µM.
